The text below walks through data of ChEMBL document CHEMBL3227920, “Synthesis and activities of antitumor agents” (J Med Chem, 1979).

The source made the active and inactive calls. The calls are words filed in the database; no cut-off is given here.

The subject of data set [1] is L1210. As to the kind of experiment: Antitumor activity against mouse L1210 cells allografted in BDF1 mouse assessed as mean survival days at 8 mg/kg, ip qd for 3 days. The note with it: route intraperitoneal. Format: functional.
For data set [2], the system named is L1210. As to the kind of experiment: Antitumor activity against mouse L1210 cells allografted in BDF1 mouse assessed as increase in life span at 8 mg/kg, ip qd for 3 days relative to control. Format: functional. The conditions noted are these: route intraperitoneal.
For data set [3], the system named is L1210. Kind of data set: Antitumor activity against mouse L1210 cells allografted in BDF1 mouse assessed as mean survival days at 10 mg/kg, ip qd for 3 days. Format: functional. The note with it: route intraperitoneal.
Data set [4] has as its system L1210. Kind of data set: Antitumor activity against mouse L1210 cells allografted in BDF1 mouse assessed as mean survival days at 10 mg/kg, ip qd for 3 days relative to control. The note with it: route intraperitoneal. Format: functional.
The test system of data set [5] is L1210. Kind of data set: Antitumor activity against mouse L1210 cells allografted in BDF1 mouse assessed as increase in life span at 10 mg/kg, ip qd for 3 days relative to control. Format: functional. The conditions noted are these: route intraperitoneal.
For data set [6], the system named is L1210. Kind of data set: Antitumor activity against mouse L1210 cells allografted in BDF1 mouse assessed as host survival at 8 mg/kg, ip qd for 3 days measured on day 60 relative to control. Format: functional, organism-based. The arrangement: dose 8 mg/kg.
Data set [7] deals with L1210. Kind of data set: Antitumor activity against mouse L1210 cells allografted in BDF1 mouse assessed as mean survival days at 20 mg/kg, ip qd for 3 days. Format: functional. The conditions noted are these: route intraperitoneal.
Data set [8] relates to L1210. As to the kind of experiment: Antitumor activity against mouse L1210 cells allografted in BDF1 mouse assessed as mean survival days at 20 mg/kg, ip qd for 3 days relative to control. Format: functional. The conditions noted are these: route intraperitoneal.
Data set [9] has as its system L1210. Kind of data set: Antitumor activity against mouse L1210 cells allografted in BDF1 mouse assessed as increase in life span at 20 mg/kg, ip qd for 3 days relative to control. The conditions noted are these: route intraperitoneal. Format: functional.
The test system of data set [10] is Mus musculus. As to the kind of experiment: Toxicity in mouse L1210 cells allografted BDF1 mouse assessed as congestive liver at 40 mg/kg, ip qd for 3 days. Format: organism-based. Set-up: dose 40 mg/kg, route intraperitoneal. The note with it: in vivo, 72 h.
Data set [11] has as its system Mus musculus. Kind of data set: Toxicity in mouse L1210 cells allografted BDF1 mouse assessed as atrophic spleen at 40 mg/kg, ip qd for 3 days. Format: organism-based. Set-up: dose 40 mg/kg, route intraperitoneal. The conditions noted are these: in vivo, 72 h.
Data set [12] deals with Mus musculus. As to the kind of experiment: Toxicity in mouse L1210 cells allografted BDF1 mouse assessed as atrophic liver at 20 mg/kg, ip qd for 3 days. The note with it: in vivo, 72 h. Format: organism-based. Set-up: dose 20 mg/kg, route intraperitoneal.
The test system of data set [13] is L1210. Kind of data set: Antitumor activity against mouse L1210 cells allografted in BDF1 mouse assessed as mean survival days at 8 mg/kg, ip qd for 3 days relative to control. Format: functional. The note with it: route intraperitoneal.

Turning to `O=NN(CCCl)C(=O)N[C@@H]1O[C@H](CO)[C@H](O)[C@H](O)[C@H]1O`, the Survival with L1210 [1] was 47 days. Moreover, the Activity in the data set on L1210 [2] amounted to 405.4%.
On to `O=NN(CCCl)C(=O)N[C@@H]1O[C@H](CO)[C@@H](O[C@@H]2O[C@H](CO)[C@H](O)[C@H](O)[C@H]2O)[C@H](O)[C@H]1O`, for which the Survival in the data set on L1210 [3] was determined as 47 days. The T/C with L1210 [4] came to 9.7. In addition, the Activity in the data set on L1210 [5] is recorded as 384.5%.
On to `O=NN(CCCl)C(=O)N[C@@H]1O[C@H](CO)[C@@H](O)[C@H](O)[C@@H]1O`, for which the Survival in the data set on L1210 [1] came out at 18.3 days. Further, the Activity in the data set with L1210 [2] was 103.3%. Moreover, the outcome in the data set with L1210 [6] was inactive.
On to `O=NN(CCCl)C(=O)N[C@@H]1O[C@H](CO)[C@@H](O[C@H]2O[C@H](CO)[C@@H](O)[C@H](O)[C@H]2O)[C@H](O)[C@H]1O`, for which the Survival with L1210 [7] is 45.3 days. Moreover, the T/C in the data set with L1210 [8] worked out at 9. The Activity with L1210 [9] was 403.3%; with Mus musculus [10], “Toxic”; with Mus musculus [11] it was “Toxic”; in the data set on Mus musculus [12], “Toxic”.
As for `O=NN(CCCl)C(=O)N[C@@H]1OC[C@@H](O)[C@H](O)[C@H]1O`, in the data set on L1210 [1], the Survival was 60 days. Moreover, in the data set with L1210 [13], the T/C came to 11. In addition, the Activity in the data set with L1210 [2] is reported as 445.5%. For the same compound, the outcome in the data set on L1210 [6] was Active.
For `O=NN(CCCl)C(=O)N[C@@H]1O[C@H](CO)[C@@H](O)[C@H](O)[C@H]1O`, the Survival with L1210 [1] is 60 days. The Activity in the data set on L1210 [2] is on record as 512.2%. For the same compound, the result with L1210 [6] was Active.
In the case of `O=NN(CCCl)C(=O)N[C@@H]1O[C@H](CO)[C@@H](O[C@@H]2O[C@H](CO)[C@@H](O)[C@H](O)[C@H]2O)[C@H](O)[C@H]1O`, the Survival in the data set with L1210 [1] amounted to 42 days. Also, in the data set with L1210 [13], the T/C is 7.2. Further, the Activity in the data set with L1210 [2] was determined as 483.3%.
